Assay results published in PMC7343282, “Tissue Distribution of Several Series of Cationic Surfactants in Rainbow Trout (Oncorhynchus mykiss) Following Exposure via Water” (Environmental Science & Technology, 2020).

What was measured:
[1] = system: rainbow trout (Oncorhynchus mykiss); experiment: Tissue concentrations in rainbow trout after 7 d exposure via water (two mixtures); type: in vivo
Procedure: (§1) The study was conducted with rainbow trout (Oncorhynchus mykiss) weighing between 98 and 165 g. The fish were purchased from Nordic trout Sweden AB and held in the aquaria facility prior to the experiment in February 2018. Ethical approval for the experiments was obtained from Stockholms djurförsöksetiska nämnd (decision 9967-2017). The experiments were conducted in 300 L fiberglass aquaria with a water renewal rate of 1.3 L min^–1 (MIX 1) and 1.45 L min^–1 (MIX 2). The water temperature was 10 °C and the pH 7.5. The water hardness was estimated to be 1.1 mM Ca^2+ based on information from the water supplier. The aquaria water was circulated through a filter of polyester wool at 800–1200 L h^–1 with an Eheim 2273 Pro 4+ pump. The outflow from the filter pump was placed above the water surface, providing for aeration. The lighting was dim and programmed on a 12 h light/12 h dark cycle. The fish were fed fish food pellets supplied by the fish farm at 1.0% of their body weight per day.
(§2) A solution of the test chemical mixture in methanol was infused continuously (3.5 and 3.8 μL min^–1 for MIX 1 and MIX 2, respectively) into the water inflow using a syringe pump. The intended concentrations of the chemicals in water ranged from 2.5 to 50 μg L^–1 (Table 1). They were selected with the help of modeled estimates of the BCF that were based on reported and extrapolated membrane water partition coefficients[7] and biotransformation rate constants predicted with quantitative structure activity relationships (QSARs)[24],[25] to parameterize the BIONIC model.[26] Based on these estimates, we selected an exposure concentration which would result in concentrations in fish that were clearly above the limit of quantification (LOQ) of the analytical method, while trying to keep the quantifiable exposure concentration as low as possible to minimize the risk of toxic effects and micelle formation (see comparison of intended concentrations with available toxicological data in Table S4).
(§3) The surface of the fish posterior of the gills was rinsed with 100% methanol to remove test chemical residues adsorbed to the outer surface of the skin and absorbed in the skin mucus. […] The fish were dissected and the liver, the kidney, the gills, and the remaining contents of the abdominal cavity were taken and weighed. Skin and muscle samples were prepared from the upper dorsal region on semi-frozen fish after the methanol rinse had removed the mucus. The main part of the subcutaneous fat tissue was included in the muscle samples rather than in the skin samples. All samples were stored frozen at −20 °C until further analysis.
(§4) For 6 fish from each aquarium and 3 control fish, samples of muscle, skin, liver, and gills were homogenized in a bullet blender (muscle and liver) (MiniG, SPEXsamplePrep) or in a cryo-mill (skin and gill) (Mixer mill cryomill, Retsch GmbH). A sub-sample of 0.5–1.2 g of the homogenate was extracted twice in methanol (4 mL, 50 °C, ultra-sound, 60 min), employing centrifugation at 4000 rpm for phase separation. Further information on the extraction efficiency of this method can be found in the Supporting Information (Table S5 and accompanying text). Isotope labeled standards of Q10 (D21), Q14 (D29), and P16 (D33) were added to a portion of the extract corresponding to 12–75 mg of the sample. The extract volume was adjusted to 3 mL with methanol and then cleaned up on a weak cationic exchange SPE column (WCX, 60 mg, 30 μm particle size, waters). Solvent elution was performed by gravity flow. The column was conditioned with 2 mL of methanol, followed by 2 mL of Milli-Q water adjusted to pH 7 with ammonium hydroxide to activate the ion exchange. The sample extract was loaded onto the column, and it was subsequently rinsed with 20 mL of methanol.

[2] = system: rainbow trout (Oncorhynchus mykiss); experiment: Apparent bioconcentration factor at end of 7-day exposure; type: in vivo
Procedure: Apparent BCFs (BCFapp) at the end of the 7-day exposure were calculated by dividing the surfactant body burden (including mucus) by the fish mass, and dividing this by the average measured concentration in water samples taken during the exposure phase. The BCFapp values ranged from 0.1 to 1260 (Table S18). Given the short exposure period, it is possible that the fish in this study had not approached steady state, in particular with respect to the distribution between water and internal tissues and between water and skin, and that the steady-state BCFs are higher. […] We note that some improvements in the methodology would be helpful, particularly with respect to the stability of the aqueous exposure concentration of the longest chain surfactants. Working with mixtures of analogue cationic surfactants allowed for consistent evaluation of differences in accumulation trends due to structural features.

[3] = Table S2; cited from earlier work
[4] = ref Timmer and Droge (2017); cited from earlier work
[5] = Tissue concentrations in rainbow trout after 7 d exposure via water (two mixtures); type: in vivo, Oncorhynchus mykiss; details: rainbow trout (Oncorhynchus mykiss), in vivo
Procedure: as §1, §2, §3, §4

[6] = Tissue-blood distribution coefficients and volume of distribution; details: whole blood, pH 7.5, Estimated volume of distribution Vd, residues in muscle, liver and blood only
Procedure: Blood is the transport medium for contaminants in fish, and the tissue distribution is governed by tissue–blood distribution coefficients. […] Muscle–blood and liver–blood distribution coefficients (DMus–B and DL–B) were calculated as the quotients of the concentrations in the respective tissues and blood. This approach implies that there was an internal test chemical steady state in the fish.
The experimental data also allow estimation of the volume of distribution (Vd), an important parameter for extrapolating in vitro measures of e.g. metabolism to in vivo. In the context of quantitative in vitro–in vivo extrapolation for fish, Vd is defined as the quotient of the concentration in fish and the concentration in blood and describes the equivalent volume of blood that would contain the same amount of the chemical as 1 kg of fish.[40]Vd was estimated using the residues that had been clearly taken up systemically (i.e., those in muscle, liver and blood).

[7] = mean of exposed fish, Table S13
[8] = wet weight, mean of six fish (RSD %), 7 d exposure, Q10, Q14 below LOQ
[9] = end of 7-day exposure, body burden including mucus
[10] = rainbow trout (Oncorhynchus mykiss), in vivo, 7 d
[11] = rainbow trout (Oncorhynchus mykiss), in vivo, 7 d, pH 7.5

Structure (SMILES): CCCCCCCCCN(C)C [T9, N,N-dimethylnonylamine]
- Concentration in blood ([1]; exposed fish #1): 305 ng/g
- Concentration in gills ([1]; exposed fish #1): 1126 ng/g
- Concentration in gills, surface area-normalized ([1]; exposed fish #1): 15.7 ng cm-2
- Concentration in liver ([1]; exposed fish #1): 3588 ng/g
- Concentration in mucus ([1]; exposed fish #1): 19 ng cm-2
- Concentration in muscle ([1]; exposed fish #1): 173 ng/g
- Concentration in skin, per surface area ([1]; exposed fish #1): 48 ng cm-2
- Concentration in blood ([1]; exposed fish #2): 334 ng/g
- Concentration in gills ([1]; exposed fish #2): 1320 ng/g
- Concentration in gills, surface area-normalized ([1]; exposed fish #2): 17.4 ng cm-2
- Concentration in liver ([1]; exposed fish #2): 2592 ng/g
- Concentration in mucus ([1]; exposed fish #2): 17 ng cm-2
- Concentration in muscle ([1]; exposed fish #2): 173 ng/g
- Concentration in skin, per surface area ([1]; exposed fish #2): 32 ng cm-2
- Concentration in blood ([1]; exposed fish #3): 475 ng/g
- Concentration in gills ([1]; exposed fish #3): 1432 ng/g
- Concentration in liver ([1]; exposed fish #3): 2863 ng/g
- Concentration in mucus ([1]; exposed fish #3): 15 ng cm-2
- Concentration in muscle ([1]; exposed fish #3): 200 ng/g
- Concentration in skin, per surface area ([1]; exposed fish #3): 28 ng cm-2
- Concentration in blood ([1]; exposed fish #4): 251 ng/g
- Concentration in gills ([1]; exposed fish #4): 1130 ng/g
- Concentration in gills, surface area-normalized ([1]; exposed fish #4): 17.5 ng cm-2
- Concentration in liver ([1]; exposed fish #4): 1593 ng/g
- Concentration in mucus ([1]; exposed fish #4): 18 ng cm-2
- Concentration in muscle ([1]; exposed fish #4): 146 ng/g
- Concentration in skin, per surface area ([1]; exposed fish #4): 32 ng cm-2
- Concentration in blood ([1]; exposed fish #5): 323 ng/g
- Concentration in gills ([1]; exposed fish #5): 1240 ng/g
- Concentration in gills, surface area-normalized ([1]; exposed fish #5): 17.6 ng cm-2
- Concentration in liver ([1]; exposed fish #5): 5463 ng/g
- Concentration in mucus ([1]; exposed fish #5): 12 ng cm-2
- Concentration in muscle ([1]; exposed fish #5): 158 ng/g
- Concentration in skin, per surface area ([1]; exposed fish #5): 28 ng cm-2
- Concentration in blood ([1]; exposed fish #6): 291 ng/g
- Concentration in gills ([1]; exposed fish #6): 869 ng/g
- Concentration in gills, surface area-normalized ([1]; exposed fish #6): 11.3 ng cm-2
- Concentration in liver ([1]; exposed fish #6): 7230 ng/g
- Concentration in mucus ([1]; exposed fish #6): 9 ng cm-2
- Concentration in muscle ([1]; exposed fish #6): 111 ng/g
- Concentration in skin, per surface area ([1]; exposed fish #6): 19 ng cm-2
- Concentration in blood ([1]; mean of exposed fish, Table S10): 330 ng/g
- Concentration in muscle ([1]; mean of exposed fish, Table S11): 160 ng/g
- Concentration in liver ([1]; mean of exposed fish, Table S12): 3887 ng/g
- Concentration in gills [1, 7]: 1186 ng/g
- Concentration in gills, surface area-normalized [1, 7]: 15.9 ng cm-2
- Concentration in skin, per surface area ([1]; mean of exposed fish, Table S14): 31 ng cm-2
- Concentration in mucus ([1]; mean of exposed fish, Table S15): 15 ng cm-2
- Concentration in mucus ([1]; methanol rinse normalized to fish surface area, mean of six fish (RSD %)): 15 (24) ng cm^–2
- Concentration in gills ([1]; wet weight, mean of fish (RSD %), 7 d exposure): 1190 (16) ng g^–1
- Concentration in blood ([1]; wet weight, mean of six fish (RSD % in brackets), 7 d exposure, Q10 below LOQ): 330 (23) ng g^–1
- Concentration in liver [1, 8]: 3900 (49) ng g^–1
- Concentration in muscle [1, 8]: 160 (19) ng g^–1
- Concentration in skin [1, 8]: 390 (40) ng g^–1
- Apparent bioconcentration factor (BCFapp) [2, 9]: 5.4 L kg-1 wet weight
- pKa [3]: 9.5
- Log KMW,C (membrane-water partition coefficient of the charged form) [4]: 3.07

Structure (SMILES): CCCCCCCCCN [P9, Nonylamine]
- concentration at 7 d ([5]; pH 7.5, Concentration in gills): 1040 ng/g
- concentration at 7 d ([5]; pH 7.5, Concentration in skin): 70 ng/g
- Concentration in gills [1, 10]: 1200 (12) ng g^–1
- Concentration in liver [1, 10]: 1710 (40) ng g^–1
- Concentration in skin [1, 10]: 132 (36) ng g^–1
- Concentration in blood [1, 11]: 46 (29) ng g^–1
- Concentration in muscle [1, 11]: 27 (39) ng g^–1
- Concentration in skin, per surface area [1, 11]: 11.6 ng cm-2
- Vd at 7 d ([6]; Mean): 0.91 L/kg
- Vd at 7 d ([6]; exposed fish #1): 0.59 L/kg
- Vd at 7 d ([6]; exposed fish #2): 1.06 L/kg
- Vd at 7 d ([6]; exposed fish #3): 0.8 L/kg
- Vd at 7 d ([6]; exposed fish #4): 1.6 L/kg
- Vd at 7 d ([6]; exposed fish #5): 0.83 L/kg
- Vd at 7 d ([6]; exposed fish #6): 0.56 L/kg
- Apparent bioconcentration factor (BCFapp) [2, 9]: 3.3 L kg-1 wet weight
- pKa [3]: 10.5
- Log KMW,C (membrane-water partition coefficient of the charged form) [4]: 3.72

Structure (SMILES): CCCCCCCCCCCCN [P12, Dodecylamine]
- concentration at 7 d ([5]; Concentration in skin): 4630 ng/g
- concentration at 7 d ([5]; pH 7.5, Concentration in blood): 558 ng/g
- concentration at 7 d ([5]; pH 7.5, Concentration in gills): 18500 ng/g
- concentration at 7 d ([5]; pH 7.5, Concentration in liver): 35600 ng/g
- concentration at 7 d ([5]; pH 7.5, Concentration in skin): 2720 ng/g
- Concentration in gills [1, 10]: 20 000 (10) ng g^–1
- Concentration in liver [1, 10]: 42 000 (15) ng g^–1
- Concentration in skin [1, 10]: 3900 (25) ng g^–1
- Concentration in blood [1, 11]: 770 (26) ng g^–1
- Concentration in muscle [1, 11]: 630 (28) ng g^–1
- Concentration in skin, per surface area [1, 11]: 310 ng cm-2
- Vd at 7 d ([6]; Mean): 1.29 L/kg
- Vd at 7 d ([6]; exposed fish #1): 1.13 L/kg
- Vd at 7 d ([6]; exposed fish #2): 1.31 L/kg
- Vd at 7 d ([6]; exposed fish #3): 1.07 L/kg
- Vd at 7 d ([6]; exposed fish #4): 1.87 L/kg
- Vd at 7 d ([6]; exposed fish #5): 1.56 L/kg
- Vd at 7 d ([6]; exposed fish #6): 0.79 L/kg
- Apparent bioconcentration factor (BCFapp) [2, 11]: 230 L kg-1 wet weight
- pKa [3]: 10.5
- Log KMW,C (membrane-water partition coefficient of the charged form) [4]: 5.58
